Source: patent US5945450A, “Naphthalene derivative” (Teijin Limited, priority 1994, dated 1999)

Assays:
Format in all cases: cell-based
human IgE antibodies = test: In vitro inhibition of the production of human IgE antibodies (lymphocytes + IL-4 + anti CD40Ab + IL-10, ELISA); conditions: Lymphocyte, 3 μM, read-out: Inhibition of antibody production (%) IgE
Protocol: (§1) According to the method described in J. Immunol., 146:1836-1842, 1991 and J. Immunol., 147:8-13, 1991, the concentrations of IgE and IgG antibodies were measured by the procedures described below.
(§2) Peripheral venous blood was sampled from the healthy person, and submitted to density-gradient centrifugation to isolate lymphocytes. The lymphocytes thus obtained were washed and suspended in a culture medium (RPMI-1640 (provided by Gibco)+10% heat-inactivated FCS (Whittaker)+100 µg/ml streptomycin+100 U/ml penicillin+2mM L-glutamine). The cell suspensions were cultured for 1 week in the presence/absence of the compounds of this invention at the concentrations as described in Tables 3-1 to 3-2 together with human interleukin 4 (IL-4, Genzyme)([…]), anti CD40 antibodies (anti CD40Ab, Biosource, clone B-B20)([…]) and human interleukin 10 (IL-10, Genzyme)([…]). The culture medium was supplied freshly to the cell suspension, and the mixture was further cultured for another week. The supernatant was sampled and the concentrations of IgE and IgG antibodies therein were measured by sandwich ELISA.
(§3) The ELISA was based, for the assay of IgE antibodies, on the use of rabbit anti-human IgE() antibodies (ICN) as the primary antibody and biotin-linked anti-human IgE monoclonal antibodies (G7-26, PharMingen) as the secondary antibody. For the assay of IgG antibodies, anti-human IgG monoclonal antibodies (G18-145, PharMingen) and biotin-linked donkey anti-human IgG antibodies (H+L)(Jackson) were used for the primary and secondary antibodies, respectively. For the assay of both IgE and IgG antibodies, Avidin-Biotin-Horse Radish Peroxidase (ABC kit, Vector Lab) and TMB (3,3',5,5'-tetramethylbenzidine) microwell peroxidase substrate system (Kirkegaard & Perry Laboratories Inc.) were used as the enzyme and the substrate, respectively. The assays were made by the use of conventionally known ELISA.
(§4) The inhibitory effect (%) of a given compound of this invention on the production of the antibody was calculated with respect to the concentration of the same antibody when the compound was not coexistent (refer to Uejima et al., American Academy of Allergy and Immunology, Proceedings of 1995 Annual Meeting, Program No. 818).

human IgG antibodies = test: In vitro inhibition of human IgG antibody production (lymphocytes + IL-4 + anti CD40Ab + IL-10, ELISA); conditions: Lymphocyte, 3 μM
Protocol: as §1, §2, §3, §4

TF (tissue factor) = test: Inhibitory effects on the TF production in LPS-stimulated human peripheral blood monocytes; conditions: Monocyte, LPS 1 μg/ml, 16 hours
Protocol: Peripheral venous blood was sampled from the healthy person, and submitted to density-gradient centrifugation so that monocytes might be isolated. The monocytes thus obtained were washed with minimum essential medium (MEM, Gibco) and suspended in a culture medium (RPMI-1640(Gibco)+25 mM HEPES buffer+100 μg/ml streptomycin+100 U/ml penicillin G+2 mM L-glutamine) to give a suspension with a density of 1×10^6 cells/ml. A 0.15 ml of the cell suspension was placed onto each of the wells of a 96-well microplate, to which the compound of this invention as described in Tables 4-1 to 4-2 was added (0.05 ml of the culture medium), and the assembly was placed for 1 hour in a CO2 incubator for cultivation. Then, LPS (lipopolysaccarides, E. coli 0111B4, Difco) 1 μg/ml was added thereto, and the assembly was further cultured for 16 hours. After the supernatant being removed, the residue was washed with physiological saline, 0.1 ml of 16 mM OG (n-octyl-β-D-glucopyranoside) was added thereto, and the assembly was stirred to make TF soluble. A 0.2 ml of physiological saline was added to each residue (final dilution was […]) and this preparation was used for determination of the coagulation stimulating activity (TF-like activity). The test compound had been dissolved in DMSO to give a 0.1 M solution which was diluted with the culture medium prior to use. The final concentration of DMSO was 0.01% or less.
To each well of the microplate, 50 μl of human plasma and 50 μl of the test sample prepared as above for determination of the coagulation stimulating activity, or 50 μl of standard thromboplastin (human thromboplastin, Thromborel S, Behringwerke) were added. The microplate was incubated at 37° C. for 5 minutes, to which was added 25 mM CaCl2 (50 μl/well) containing phosphorous lipids (Platelin, Organon Teknica) at a concentration of […] to initiate coagulation. Coagulation was determined on the basis of absorption at 540 nm, and the measurement lasted 7 to 20 minutes. The data were analyzed with a data analyzing software SOFTMax (Molecular Devices) and the maximum rate time was taken as the coagulation time. The logarithmic values of the coagulation times and standard thromboplastin concentrations are plotted, and a regression parabola was drawn among the dots to give a test curve. From the curve, the inhibitory effect (%) of a given test compound on TF production was calculated. (Refer to J. Imnmunol. Methods, 133:21-29, 1990, and Proc. Natl. Acad. Sci. USA, 89:10370-10374, 1992).

Row | Structure (SMILES) | inhibition at 3 µM (human IgE antibodies) [%] | inhibition at 3 µM (human IgG antibodies) [%] | inhibition at 3 µM (TF (tissue factor)) [%] | inhibition at 10 µM (TF (tissue factor)) [%] | inhibition at 1 µM (TF (tissue factor)) [%]
1 | O=C(Nc1ccccc1C(=O)O)c1ccc(Oc2ccc3ccccc3c2)c([N+](=O)[O-])c1 [compound 1116] | 93 | 36.9 | 96.6 | – | –
2 | C=CCOc1ccc2cc(Oc3ccc(CC(=O)Nc4ccccc4C(=O)O)cc3)ccc2c1 [compound 1218] | 91.4 | 47.8 | – | – | –
3 | Nc1cc(C(=O)Nc2ccccc2C(=O)O)ccc1Oc1ccc2ccccc2c1 [Compound No. 1118, 2-(3-amino-4-(2-naphtyloxy)benzamide)benzoic Acid] | 77.2 | -12.9 | 86.9 | – | –
4 | O=C(Nc1ccccc1C(=O)O)c1ccc(CSc2ccc3ccccc3c2)cc1 [compound 6102] | – | – | 75.8 | 100 | –
5 | O=C(Cc1ccc(Oc2ccc3cc(OCc4ccc5ccccc5c4)ccc3c2)cc1)Nc1ccccc1C(=O)O [compound 1228] | 98.9 | 42.4 | – | – | –
6 | N#Cc1ccccc1NC(=O)c1ccc(Sc2ccc3ccccc3c2)cc1 [Compound No. 3103, 2-(4-(2-naphtylthio)benzamide)benzonitrile] | 41.9 | 3.5 | 77.9 | – | –
7 | O=C(Cc1ccc(Oc2ccc3cc(OCc4ccccc4)ccc3c2)cc1)Nc1ccccc1C(=O)O [compound 1224] | 78.6 | 83.2 | – | – | –
8 | O=C(Nc1ccccc1C(=O)O)c1ccc(C(=O)c2ccc3ccccc3c2)cc1 [compound 7102] | 15.4 | 5.4 | 10.6 | 81.1 | –
9 | O=C(Cc1ccc(COc2ccc3ccccc3c2)cc1)Nc1ccccc1C(=O)O [compound 5104] | 51.4 | 1.6 | – | – | –
10 | O=C(Nc1ccccc1C(=O)O)c1ccc(Oc2ccc3cc(OCc4ccccc4)ccc3c2)cc1 [compound 1206] | 84 | 11.5 | – | – | –
11 | O=C(C=Cc1ccc(Oc2ccc3ccccc3c2)cc1)Nc1ccccc1C(=O)O [compound 1148] | 25.5 | 10.3 | 92.9 | – | –
12 | COC(c1ccc(C(=O)Nc2ccccc2C(=O)O)cc1)c1ccc2ccccc2c1 (stereo not drawn) [compound 8102] | 60 | 9.7 | – | – | –
13 | COC(=O)c1ccccc1NC(=O)c1ccc(Oc2ccc3ccccc3c2)cc1 [Compound No. 1101, 2-(4-(2-naphthyloxy)benzamide)benzoic Acid Methyl Ester] | 30.3 | -2.8 | – | – | –
14 | O=C(CCc1ccc(Oc2ccc3ccccc3c2)cc1)Nc1ccccc1C(=O)O [compound 1146] | – | – | 23.5 | – | –
15 | O=C(Nc1ccccc1C(=O)O)c1ccc(Oc2ccc3ccccc3c2)c(C(=O)O)c1 [compound 1120] | 19.9 | 13.6 | – | – | –
16 | O=C(Nc1ccccc1)c1ccc(Oc2ccc3ccccc3c2)cc1 [Compound No. 1105, N-phenyl-4-(2-naphtyloxy)benzamide] | 42.4 | -6.4 | – | – | –
17 | O=C(Nc1ccccc1-c1nnn[nH]1)c1ccc(Oc2ccc3ccccc3c2)cc1 [Compound No. 1109, 1-(4-(2-naphtyloxy)benzamide)-2-(tetrazol-5-yl)benzene] | – | – | 99.4 | 99.7 | 74.9

Row | Structure (SMILES) | inhibition at 3 µM (human IgE antibodies) [%] | inhibition at 3 µM (human IgG antibodies) [%] | inhibition at 3 µM (TF (tissue factor)) [%] | inhibition at 10 µM (TF (tissue factor)) [%] | inhibition at 1 µM (TF (tissue factor)) [%]
18 | O=C(Nc1ccccc1C(=O)O)c1cccc(Oc2ccc3ccccc3c2)c1 [compound 1113] | – | – | 83.6 | 100 | 25.3
19 | CC(C(=O)Nc1ccccc1C(=O)O)c1ccc(Oc2ccc3ccccc3c2)cc1 (stereo not drawn) [compound 1150] | 64.4 | 3.3 | – | – | –
20 | COc1ccc2cc(Oc3ccc(C(=O)Nc4ccccc4C(=O)O)cc3)ccc2c1 [compound 1204] | 64 | -11.4 | 100 | 100 | 75.7
21 | O=C(Nc1ccccc1-c1nnn[nH]1)c1ccc(Sc2ccc3ccccc3c2)cc1 [Compound No. 3104, 1-(4-(2-naphtylthio)benzamide)-2-(tetrazol-5-yl)benzene] | – | – | 96.9 | – | –
22 | O=C(Nc1ccccc1O)c1ccc(Oc2ccc3ccccc3c2)cc1 [Compound No. 1106, 2-(4-(2-naphtyloxy)benzamide)phenol] | 42.6 | -25.3 | – | – | –
23 | O=C(Nc1ccccc1C(=O)O)c1ccc(Oc2ccc3ccccc3c2)c(C(=O)Nc2ccccc2C(=O)O)c1 [compound 1122] | 59.9 | 9.7 | – | – | –
24 | O=C(Cc1ccc(Oc2ccc3cc(OC4CCCCC4)ccc3c2)cc1)Nc1ccccc1C(=O)O [compound 1212] | 89.1 | 74.6 | – | – | –
25 | O=C(Nc1ccccc1C(=O)O)c1ccc(Cc2ccc3ccccc3c2)cc1 [compound 4103] | 45.5 | -4.2 | 74.4 | 100 | 16.5
26 | O=C(Nc1ccccc1C(=O)O)c1ccc(Oc2ccc3cc(O)ccc3c2)cc1 [Compound No. 1202, 2-(4-(6-hydroxy-2-naphtyloxy)benzamide)benzoic Acid] | 76.6 | -8.7 | 33.4 | – | –
27 | O=C(Nc1ccccc1C(=O)O)c1ccc(Oc2cccc3ccccc23)cc1 [compound 1111] | 38 | 20 | 96.2 | 100 | -9
28 | O=C(Nc1ccccc1C(=O)O)c1ccc(Sc2ccc3ccccc3c2)cc1 [compound 3102] | 19.9 | -2.8 | 100 | – | –
29 | CC(C)(C)Oc1ccc2cc(Oc3ccc(CC(=O)Nc4ccccc4C(=O)O)cc3)ccc2c1 [compound 1210] | 92.8 | 59.9 | – | – | –
30 | NS(=O)(=O)c1ccccc1NC(=O)c1ccc(Oc2ccc3ccccc3c2)cc1 [Compound No. 1107, 2-(4-(2-naphtyloxy)benzamide)benzenesulfonamide] | 44.9 | -17.2 | – | – | –
31 | O=C(Cc1ccc(Oc2ccc3cc(O)ccc3c2)cc1)Nc1ccccc1C(=O)O [Compound No. 1208, 2-(4-(6-hydroxy-2-naphtyloxy)phenylacetamide)benzoic Acid] | 86.2 | -8.4 | – | – | –
32 | COC(=O)c1ccccc1NC(=O)Cc1ccc(Oc2ccc3ccccc3c2)cc1 [compound 1123] | 21.7 | -0.8 | – | – | –
33 | O=C(Nc1ccccc1C(=O)O)c1ccc(COc2ccc3ccccc3c2)cc1 [compound 5102] | – | – | 74.1 | 99.9 | 19.8
